ChEMBL document CHEMBL3046015, “Structure-dependent phytotoxicity of catechins and other flavonoids: flavonoid conversions by cell-free protein extracts of Centaurea maculosa (spotted knapweed) roots” (J Agric Food Chem, 2003)
The source made the active and inactive calls. No cut-off for these calls is given here.

Columns and labels:
[1] = system: Linaria genistifolia subsp. dalmatica; test: Phytotoxicity in Linaria genistifolia subsp. dalmatica assessed as inhibition of seed germination at 50 ug/mL measured on day 14 relative to untreated control; type: functional, organism-based
Centaurea diffusa [2] = test: Phytotoxicity in Centaurea diffusa assessed as inhibition of seed germination at 50 ug/mL measured on day 14 relative to untreated control; type: functional, organism-based
Bassia scoparia [3] = test: Phytotoxicity in Bassia scoparia assessed as increase in mortality at 50 ug/mL measured on day 14 relative to untreated control; type: functional, organism-based
Solanum lycopersicum [4] = test: Phytotoxicity in Solanum lycopersicum (tomato) assessed as increase in mortality at 50 ug/mL measured on day 14 relative to untreated control; type: organism-based; details: in vivo
[5] = system: Linaria genistifolia subsp. dalmatica; test: Phytotoxicity in Linaria genistifolia subsp. dalmatica assessed as increase in mortality at 50 ug/mL measured on day 14 relative to untreated control; type: functional, organism-based
Centaurea maculosa [6] = test: Phytotoxicity in Centaurea maculosa assessed as inhibition of seed germination at 50 ug/mL measured on day 14 relative to untreated control; type: functional, organism-based
Triticum aestivum [7] = test: Phytotoxicity in Triticum aestivum (wheat) assessed as increase in mortality at 50 ug/mL measured on day 14 relative to untreated control; type: functional, organism-based
Bassia scoparia [8] = test: Phytotoxicity in Bassia scoparia assessed as inhibition of seed germination at 50 ug/mL measured on day 14 relative to untreated control; type: functional, organism-based
Centaurea diffusa [9] = test: Phytotoxicity in Centaurea diffusa assessed as increase in mortality at 50 ug/mL measured on day 14 relative to untreated control; type: functional, organism-based
Centaurea maculosa [10] = test: Phytotoxicity in Centaurea maculosa assessed as increase in mortality at 50 ug/mL measured on day 14 relative to untreated control; type: functional, organism-based
Triticum aestivum [11] = test: Phytotoxicity in Triticum aestivum (wheat) assessed as inhibition of seed germination at 50 ug/mL measured on day 14 relative to untreated control; type: functional, organism-based
Bassia scoparia [12] = test: Phytotoxicity in Bassia scoparia assessed as inhibition of shoot differentiation at 250 ug/mL measured on day 14 relative to untreated control; type: functional, organism-based
Centaurea diffusa [13] = test: Phytotoxicity in Centaurea diffusa assessed as inhibition of root differentiation at 250 ug/mL measured on day 14 relative to untreated control; type: functional, organism-based
[14] = system: Linaria genistifolia subsp. dalmatica; test: Phytotoxicity in Linaria genistifolia subsp. dalmatica assessed as inhibition of seed germination at 250 ug/mL measured on day 14 relative to untreated control; type: functional, organism-based
Centaurea maculosa [15] = test: Phytotoxicity in Centaurea maculosa assessed as inhibition of seed germination at 250 ug/mL measured on day 14 relative to untreated control; type: functional, organism-based
Bassia scoparia [16] = test: Phytotoxicity in Bassia scoparia assessed as inhibition of root differentiation at 250 ug/mL measured on day 14 relative to untreated control; type: functional, organism-based
[17] = system: Linaria genistifolia subsp. dalmatica; test: Phytotoxicity in Linaria genistifolia subsp. dalmatica assessed as inhibition of root differentiation at 250 ug/mL measured on day 14 relative to untreated control; type: functional, organism-based
Triticum aestivum [18] = test: Phytotoxicity in Triticum aestivum (wheat) assessed as inhibition of seed germination at 250 ug/mL measured on day 14 relative to untreated control; type: organism-based; details: in vivo
Centaurea diffusa [19] = test: Phytotoxicity in Centaurea diffusa assessed as inhibition of shoot differentiation at 250 ug/mL measured on day 14 relative to untreated control; type: functional, organism-based
Centaurea maculosa [20] = test: Phytotoxicity in Centaurea maculosa assessed as inhibition of root differentiation at 250 ug/mL measured on day 14 relative to untreated control; type: functional, organism-based
Centaurea diffusa [21] = test: Phytotoxicity in Centaurea diffusa assessed as inhibition of seed germination at 250 ug/mL measured on day 14 relative to untreated control; type: functional, organism-based
Centaurea maculosa [22] = test: Phytotoxicity in Centaurea maculosa assessed as inhibition of shoot differentiation at 250 ug/mL measured on day 14 relative to untreated control; type: functional, organism-based
[23] = system: Linaria genistifolia subsp. dalmatica; test: Phytotoxicity in Linaria genistifolia subsp. dalmatica assessed as inhibition of shoot differentiation at 250 ug/mL measured on day 14 relative to untreated control; type: functional, organism-based
Bassia scoparia [24] = test: Phytotoxicity in Bassia scoparia assessed as inhibition of seed germination at 250 ug/mL measured on day 14 relative to untreated control; type: functional, organism-based
Bassia scoparia [25] = test: Phytotoxicity in Bassia scoparia assessed as increase in mortality at 250 ug/mL measured on day 14 relative to untreated control; type: functional, organism-based
Triticum aestivum [26] = test: Phytotoxicity in Triticum aestivum (wheat) assessed as increase in mortality at 250 ug/mL measured on day 14 relative to untreated control; type: functional, organism-based
[27] = system: Linaria genistifolia subsp. dalmatica; test: Phytotoxicity in Linaria genistifolia subsp. dalmatica assessed as increase in mortality at 250 ug/mL measured on day 14 relative to untreated control; type: functional, organism-based
Arabidopsis thaliana = test: Phytotoxicity in Arabidopsis thaliana assessed as increase in mortality at 250 ug/mL measured on day 14 relative to untreated control; type: organism-based; details: in vivo
Centaurea diffusa [28] = test: Phytotoxicity in Centaurea diffusa assessed as increase in mortality at 250 ug/mL measured on day 14 relative to untreated control; type: functional, organism-based
Solanum lycopersicum [29] = test: Phytotoxicity in Solanum lycopersicum (tomato) assessed as increase in mortality at 250 ug/mL measured on day 14 relative to untreated control; type: organism-based; details: in vivo
Centaurea maculosa [30] = test: Phytotoxicity in Centaurea maculosa assessed as increase in mortality at 250 ug/mL measured on day 14 relative to untreated control; type: functional, organism-based

Compound | inhibition (Bassia scoparia [12]) | inhibition (Centaurea diffusa [13]) | inhibition [14] | inhibition (Centaurea maculosa [15]) | inhibition (Bassia scoparia [16]) | inhibition [17] | inhibition (INH) (Triticum aestivum [18]) | inhibition (Centaurea diffusa [19]) | inhibition (Centaurea maculosa [20]) | inhibition (Centaurea diffusa [21]) | inhibition (Centaurea maculosa [22]) | inhibition [23] | inhibition (Bassia scoparia [24]) | also measured
Oc1cc(O)c2c(c1)O[C@@H](c1ccc(O)c(O)c1)[C@H](O)C2 [(-)-CATECHIN] | – | – | – | – | – | – | – | – | – | – | – | – | – | inhibition [1]: Active; inhibition (Centaurea diffusa [2]): Active; inhibition (Bassia scoparia [3]): Active; inhibition (INH) (Solanum lycopersicum [4]): Toxic; inhibition [5]: Active; inhibition (Centaurea maculosa [6]): inactive; inhibition (Triticum aestivum [7]): Active; inhibition (Bassia scoparia [8]): Active; inhibition (Centaurea diffusa [9]): Active; inhibition (Centaurea maculosa [10]): inactive; inhibition (Triticum aestivum [11]): Active
Oc1cc(O)c2c(c1)O[C@H](c1ccc(O)c(O)c1)[C@H](O)C2 [(-)-EPICATECHIN] | inactive | inactive | inactive | inactive | inactive | inactive | Non-toxic | inactive | inactive | inactive | inactive | inactive | inactive | –
Oc1cc(O)c2c(c1)O[C@@H](c1ccc(O)c(O)c1)[C@@H](O)C2 [(+)-EPICATECHIN] | Active | Active | Active | Active | Active | Active | Toxic | Active | Active | Active | Active | Active | Active | –
O=c1c(O)c(-c2ccc(O)c(O)c2)oc2cc(O)cc(O)c12 [QUERCETIN] | inactive | inactive | inactive | inactive | inactive | inactive | Non-toxic | inactive | inactive | inactive | inactive | inactive | inactive | –
O=c1c(O)c(-c2ccc(O)cc2)oc2cc(O)cc(O)c12 [KAEMPFEROL] | – | – | Active | inactive | – | – | Toxic | – | – | Active | – | – | Active | inhibition (Bassia scoparia [25]): Active; inhibition (Triticum aestivum [26]): Active; inhibition [27]: Active; inhibition (INH) (Arabidopsis thaliana): Toxic; inhibition (Centaurea diffusa [28]): Active; inhibition (INH) (Solanum lycopersicum [29]): Toxic; inhibition (Centaurea maculosa [30]): inactive
O=C1c2c(O)cc(O)cc2OC(c2ccc(O)c(O)c2)C1O (racemic) [TAXIFOLIN] | – | – | Active | inactive | – | – | Toxic | – | – | Active | – | – | Active | inhibition (Bassia scoparia [25]): Active; inhibition (Triticum aestivum [26]): Active; inhibition [27]: Active; inhibition (INH) (Arabidopsis thaliana): Toxic; inhibition (Centaurea diffusa [28]): Active; inhibition (INH) (Solanum lycopersicum [29]): Toxic; inhibition (Centaurea maculosa [30]): inactive
O=C1C[C@@H](c2ccc(O)cc2)Oc2cc(O)cc(O)c21 [NARINGENIN] | inactive | inactive | inactive | inactive | inactive | inactive | Non-toxic | inactive | inactive | inactive | inactive | inactive | inactive | –
